In this test the test system is PC3 cells. Briefly: NAMPT Cell Proliferation Assay. Format: cell-based. The following applies: Homo sapiens, PC-3, 120 h, 5 days incubation, cell viability by Cell Titer Glo. In outline:
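Seeded at 500 cells/well in RPMI with 10% heat-inactivated FBS and left to attach overnight at 37° C, 5% CO2. Compounds were added as 10-fold dilutions […] for 5 days, then viability was read by CellTiter-Glo. IC50s came from sigmoidal fits of percent inhibition.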

Structures are written as SMILES.

Regarding `Cc1cc(C)cc(CC(=O)N2CCC(c3ccc(NC(=O)[C@H]4CCN(c5cccnn5)C4)cc3)CC2)c1` [Example 683, (3S)-N-(4-{1-[(3,5-dimethylphenyl)acetyl]piperidin-4-yl}phenyl)-1-(pyridazin-3-yl)pyrrolidine-3-carboxamide], inhibition was half-maximal at 9.02 nM (IC50). Regarding `O=C(Nc1ccc(C2CCN(C(=O)c3cc(Cl)cc(Cl)c3)CC2)cc1)[C@H]1CCN(c2cccnn2)C1` [Example 684, (3S)-N-{4-[1-(3,5-dichlorobenzoyl)piperidin-4-yl]phenyl}-1-(pyridazin-3-yl)pyrrolidine-3-carboxamide], the half-inhibitory concentration (IC50) came to 76.6 nM. For `Cc1c(F)cccc1C(=O)N1CCC(c2ccc(NC(=O)[C@H]3CCN(c4cccnn4)C3)cc2)CC1` [Example 685, (3S)-N-{4-[1-(3-fluoro-2-methylbenzoyl)piperidin-4-yl]phenyl}-1-(pyridazin-3-yl)pyrrolidine-3-carboxamide], the IC50 came out at 8.28 nM. `O=C(Nc1ccc(C2CCN(C(=O)Cc3ccc(Cl)cc3)CC2)cc1)[C@H]1CCN(c2cccnn2)C1` [Example 686, (3S)-N-(4-{1-[(4-chlorophenyl)acetyl]piperidin-4-yl}phenyl)-1-(pyridazin-3-yl)pyrrolidine-3-carboxamide] displayed an IC50 of 64.9 nM. This IC50 lies about 7.8-fold higher than the previous one.

Consider `O=C(Nc1ccc(C2CCN(C(=O)c3ccoc3)CC2)cc1)[C@H]1CCN(c2cccnn2)C1` [Example 687, (3S)-N-{4-[1-(furan-3-ylcarbonyl)piperidin-4-yl]phenyl}-1-(pyridazin-3-yl)pyrrolidine-3-carboxamide], for which the IC50 was 6.11 nM. Compared with the last compound, the IC50 is about 11-fold lower. `Cc1ccc(C(=O)N2CCC(c3ccc(NC(=O)[C@H]4CCN(c5cccnn5)C4)cc3)CC2)cc1C` [Example 688, (3S)-N-{4-[1-(3,4-dimethylbenzoyl)piperidin-4-yl]phenyl}-1-(pyridazin-3-yl)pyrrolidine-3-carboxamide] yielded an IC50 of 9.4 nM. Consider `O=C(Nc1ccc(C2CCN(C(=O)c3ccc(F)cc3)CC2)cc1)[C@H]1CCN(c2cccnn2)C1` [Example 689, (3S)-N-{4-[1-(4-fluorobenzoyl)piperidin-4-yl]phenyl}-1-(pyridazin-3-yl)pyrrolidine-3-carboxamide], for which the IC50 is 9.68 nM. As for `O=C(Nc1ccc(C2CCN(C(=O)c3cc(C(F)(F)F)ccc3Cl)CC2)cc1)[C@H]1CCN(c2cccnn2)C1` [Example 690, (3S)-N-(4-{1-[2-chloro-5-(trifluoromethyl)benzoyl]piperidin-4-yl}phenyl)-1-(pyridazin-3-yl)pyrrolidine-3-carboxamide], the 50% inhibitory concentration (IC50) is 3.14 nM. `CC(=O)N1CCC(c2ccc(NC(=O)[C@H]3CCN(c4cccnn4)C3)cc2)CC1` [Example 691, (3S)-N-[4-(1-acetylpiperidin-4-yl)phenyl]-1-(pyridazin-3-yl)pyrrolidine-3-carboxamide]: the IC50 stood at 30 nM. On to `O=C(Nc1ccc(C2CCN(C(=O)c3ccc(F)cc3F)CC2)cc1)[C@H]1CCN(c2cccnn2)C1` [Example 692, (3S)-N-{4-[1-(2,4-difluorobenzoyl)piperidin-4-yl]phenyl}-1-(pyridazin-3-yl)pyrrolidine-3-carboxamide], for which the IC50 is 4.23 nM.

For the compound `Cc1cc(C)cc(C(=O)N2CCC(c3ccc(NC(=O)[C@H]4CCN(c5cccnn5)C4)cc3)CC2)c1` [Example 693, (3S)-N-{4-[1-(3,5-dimethylbenzoyl)piperidin-4-yl]phenyl}-1-(pyridazin-3-yl)pyrrolidine-3-carboxamide], the IC50 was determined as 13.6 nM. In turn, `CCOCCC(=O)N1CCC(c2ccc(NC(=O)[C@H]3CCN(c4cccnn4)C3)cc2)CC1` [Example 694, (3S)-N-{4-[1-(3-ethoxypropanoyl)piperidin-4-yl]phenyl}-1-(pyridazin-3-yl)pyrrolidine-3-carboxamide] showed an IC50 of 71.6 nM. Against the preceding compound, the IC50 is about 5.3-fold higher. Regarding `O=C(Nc1ccc(C2CCN(C(=O)c3cc(Cl)ccc3Cl)CC2)cc1)[C@H]1CCN(c2cccnn2)C1` [Example 695, (3S)-N-{4-[1-(2,5-dichlorobenzoyl)piperidin-4-yl]phenyl}-1-(pyridazin-3-yl)pyrrolidine-3-carboxamide], the 50% inhibitory concentration (IC50) worked out at 6.16 nM. Compound `Cc1ccc(C)c(C(=O)N2CCC(c3ccc(NC(=O)[C@H]4CCN(c5cccnn5)C4)cc3)CC2)c1` [Example 696, (3S)-N-{4-[1-(2,5-dimethylbenzoyl)piperidin-4-yl]phenyl}-1-(pyridazin-3-yl)pyrrolidine-3-carboxamide] returned an IC50 of 4.67 nM. Compound `Cc1ccc(F)cc1C(=O)N1CCC(c2ccc(NC(=O)[C@H]3CCN(c4cccnn4)C3)cc2)CC1` [Example 697, (3S)-N-{4-[1-(5-fluoro-2-methylbenzoyl)piperidin-4-yl]phenyl}-1-(pyridazin-3-yl)pyrrolidine-3-carboxamide] displayed an IC50 of 5.96 nM. In turn, `O=C(Nc1ccc(C2CCN(C(=O)C(c3ccccc3)c3ccccc3)CC2)cc1)[C@H]1CCN(c2cccnn2)C1` [Example 698, (3S)-N-{4-[1-(diphenylacetyl)piperidin-4-yl]phenyl}-1-(pyridazin-3-yl)pyrrolidine-3-carboxamide] showed an IC50 of 67.9 nM.

The compound `O=C(Nc1ccc(C2CCN(C(=O)c3ccc(C(F)(F)F)cc3)CC2)cc1)[C@H]1CCN(c2cccnn2)C1` [Example 699, (3S)-1-(pyridazin-3-yl)-N-(4-{1-[4-(trifluoromethyl)benzoyl]piperidin-4-yl}phenyl)pyrrolidine-3-carboxamide] yielded an IC50 of 65 nM. Compound `C=CCCC(=O)N1CCC(c2ccc(NC(=O)[C@H]3CCN(c4cccnn4)C3)cc2)CC1` [Example 700, (3S)-N-{4-[1-(pent-4-enoyl)piperidin-4-yl]phenyl}-1-(pyridazin-3-yl)pyrrolidine-3-carboxamide] yielded an IC50 of 8.76 nM. This IC50 lies about 7.4-fold lower than the previous one. As for `O=C(Nc1ccc(C2CCN(C(=O)c3cccc(OC(F)(F)F)c3)CC2)cc1)[C@H]1CCN(c2cccnn2)C1` [Example 701, (3S)-1-(pyridazin-3-yl)-N-(4-{1-[3-(trifluoromethoxy)benzoyl]piperidin-4-yl}phenyl)pyrrolidine-3-carboxamide], the midpoint of inhibition, the IC50, lay at 75.2 nM.

As for `O=C(Nc1ccc(C2CCN(C(=O)C3(c4ccccc4)CC3)CC2)cc1)[C@H]1CCN(c2cccnn2)C1` [Example 702, (3S)-N-(4-{1-[(1-phenylcyclopropyl)carbonyl]piperidin-4-yl}phenyl)-1-(pyridazin-3-yl)pyrrolidine-3-carboxamide], the IC50 is 2.07 nM.

For `O=C(Nc1ccc(C2CCN(C(=O)c3cc(C(F)(F)F)ccc3F)CC2)cc1)[C@H]1CCN(c2cccnn2)C1` [Example 703, (3S)-N-(4-{1-[2-fluoro-5-(trifluoromethyl)benzoyl]piperidin-4-yl}phenyl)-1-(pyridazin-3-yl)pyrrolidine-3-carboxamide], inhibition was half-maximal at 8.43 nM (IC50). As to `O=C(Nc1ccc(C2CCN(C(=O)CC3CCCCC3)CC2)cc1)[C@H]1CCN(c2cccnn2)C1` [Example 704, (3S)-N-{4-[1-(cyclohexylacetyl)piperidin-4-yl]phenyl}-1-(pyridazin-3-yl)pyrrolidine-3-carboxamide], the IC50 is 5.3 nM. Under `COc1ccc(C(=O)N2CCC(c3ccc(NC(=O)[C@H]4CCN(c5cccnn5)C4)cc3)CC2)cc1` [Example 705, (3S)-N-{4-[1-(4-methoxybenzoyl)piperidin-4-yl]phenyl}-1-(pyridazin-3-yl)pyrrolidine-3-carboxamide] stands 20.2 nM; under `CCC(C)C(=O)N1CCC(c2ccc(NC(=O)[C@H]3CCN(c4cccnn4)C3)cc2)CC1` (stereo partly drawn) [Example 706, (3S)-N-{4-[1-(2-methylbutanoyl)piperidin-4-yl]phenyl}-1-(pyridazin-3-yl)pyrrolidine-3-carboxamide], 7.7 nM; under `CCC(CC)C(=O)N1CCC(c2ccc(NC(=O)[C@H]3CCN(c4cccnn4)C3)cc2)CC1` [Example 707, (3S)-N-{4-[1-(2-ethylbutanoyl)piperidin-4-yl]phenyl}-1-(pyridazin-3-yl)pyrrolidine-3-carboxamide], 6.93 nM.

With `CC(C)(C)c1ccc(C(=O)N2CCC(c3ccc(NC(=O)[C@H]4CCN(c5cccnn5)C4)cc3)CC2)cc1` [Example 708, (3S)-N-{4-[1-(4-tert-butylbenzoyl)piperidin-4-yl]phenyl}-1-(pyridazin-3-yl)pyrrolidine-3-carboxamide], the IC50 came to 14.2 nM.

`O=C(Nc1ccc(C2CCN(C(=O)c3cccc(Cl)c3)CC2)cc1)[C@H]1CCN(c2cccnn2)C1` [Example 709, (3S)-N-{4-[1-(3-chlorobenzoyl)piperidin-4-yl]phenyl}-1-(pyridazin-3-yl)pyrrolidine-3-carboxamide] displayed an IC50 of 14.5 nM.

`O=C(Nc1ccc(C2CCN(C(=O)Cc3ccccc3F)CC2)cc1)[C@H]1CCN(c2cccnn2)C1` [Example 710, (3S)-N-(4-{1-[(2-fluorophenyl)acetyl]piperidin-4-yl}phenyl)-1-(pyridazin-3-yl)pyrrolidine-3-carboxamide] yielded an IC50 of 10.3 nM.

The compound `O=C(Nc1ccc(C2CCN(C(=O)c3cccc(C(F)(F)F)c3)CC2)cc1)[C@H]1CCN(c2cccnn2)C1` [Example 711, (3S)-1-(pyridazin-3-yl)-N-(4-{1-[3-(trifluoromethyl)benzoyl]piperidin-4-yl}phenyl)pyrrolidine-3-carboxamide] yielded an IC50 of 59.5 nM. Take `CC1(C(=O)N2CCC(c3ccc(NC(=O)[C@H]4CCN(c5cccnn5)C4)cc3)CC2)CC1` [Example 712, (3S)-N-(4-{1-[(1-methylcyclopropyl)carbonyl]piperidin-4-yl}phenyl)-1-(pyridazin-3-yl)pyrrolidine-3-carboxamide]: the midpoint of inhibition, the IC50, lay at 6.79 nM.

Turning to `C#CCCC(=O)N1CCC(c2ccc(NC(=O)[C@H]3CCN(c4cccnn4)C3)cc2)CC1` [Example 713, (3S)-N-{4-[1-(pent-4-ynoyl)piperidin-4-yl]phenyl}-1-(pyridazin-3-yl)pyrrolidine-3-carboxamide], the IC50 was 9.99 nM. In turn, `O=C(Nc1ccc(C2CCN(C(=O)Cc3cccc(F)c3)CC2)cc1)[C@H]1CCN(c2cccnn2)C1` [Example 714, (3S)-N-(4-{1-[(3-fluorophenyl)acetyl]piperidin-4-yl}phenyl)-1-(pyridazin-3-yl)pyrrolidine-3-carboxamide] displayed an IC50 of 17.6 nM. This IC50 is about 1.8-fold higher than that of the compound before.

The values are drawn from patent publication US20130303509A1, “NAMPT INHIBITORS” (AbbVie Inc., priority 2012, published 2013).
